According to PubChem BioAssay AID330 (DTP/NCI, 2004):
Values joined by “and” are separate entries in the source; they are usually repeats but may differ in a detail not shown here. Equal values may be shown once. Toxic doses and inconclusive results are not listed. The calls were made as follows: active = survival T/C of 150% or more; inactive = T/C below 125% in these data. Peptide text beside a SMILES is read from it. * marks the point of attachment. Trt = c1ccc(C(c2ccccc2)(c2ccccc2)*)cc1; Bn = c1ccc(C*)cc1

Test system: P388 leukemia ip, CD2F1 mice, survival T/C
Experiment: NCI In Vivo Anticancer Drug Screen. Data for tumor model P388 Leukemia (intraperitoneal) in CD2F1 (CDF1) mice
Settings: endpoint: median survival time, higher = longer survival
How it was run: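 Mice carrying the transplanted tumor received test compound or vehicle. Survival was recorded in each group, and the value is the treated-group measurement divided by that of the vehicle-treated control group.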

[1] = dose: 50.0 mg/kg/injection, schedule: Q01DX005 (ip), vehicle: Klucel (hydroxypropylcellulose) (HPC)
[2] = dose: 100.0 mg/kg/injection, schedule: Q01DX005 (ip), vehicle: Klucel (hydroxypropylcellulose) (HPC)
[3] = dose: 200.0 mg/kg/injection, schedule: Q01DX005 (ip), vehicle: Klucel (hydroxypropylcellulose) (HPC)
[4] = dose: 25.0 mg/kg/injection, schedule: Q01DX009 (ip), vehicle: saline with Tween-80
[5] = dose: 50.0 mg/kg/injection, schedule: Q01DX009 (ip), vehicle: saline with Tween-80
[6] = dose: 100.0 mg/kg/injection, schedule: Q01DX009 (ip), vehicle: saline with Tween-80
[7] = dose: 50.0 mg/kg/injection, schedule: Q01DX005 (ip), vehicle: saline with Tween-80
[8] = dose: 100.0 mg/kg/injection, schedule: Q01DX005 (ip), vehicle: saline with Tween-80
[9] = dose: 12.5 mg/kg/injection, schedule: Q01DX005 (ip), vehicle: saline with Tween-80
[10] = dose: 25.0 mg/kg/injection, schedule: Q01DX005 (ip), vehicle: saline with Tween-80
[11] = dose: 12.5 mg/kg/injection, schedule: Q01DX005 (ip), vehicle: saline
[12] = dose: 25.0 mg/kg/injection, schedule: Q01DX005 (ip), vehicle: saline
[13] = dose: 50.0 mg/kg/injection, schedule: Q01DX005 (ip), vehicle: saline
[14] = dose: 100.0 mg/kg/injection, schedule: Q01DX001 (ip), vehicle: saline with Tween-80
[15] = dose: 200.0 mg/kg/injection, schedule: Q01DX001 (ip), vehicle: saline with Tween-80
[16] = dose: 400.0 mg/kg/injection, schedule: Q01DX001 (ip), vehicle: saline with Tween-80
[17] = dose: 50.0 mg/kg/injection, schedule: Q01DX009 (ip), vehicle: Klucel (hydroxypropylcellulose) (HPC)
[18] = dose: 100.0 mg/kg/injection, schedule: Q01DX009 (ip), vehicle: Klucel (hydroxypropylcellulose) (HPC)
[19] = dose: 200.0 mg/kg/injection, schedule: Q01DX009 (ip), vehicle: Klucel (hydroxypropylcellulose) (HPC)
[20] = dose: 6.25 mg/kg/injection, schedule: Q01DX005 (ip), vehicle: saline with Tween-80
[21] = dose: 100.0 mg/kg/injection, schedule: Q01DX005 (ip), vehicle: saline
[22] = dose: 60.0 mg/kg/injection, schedule: Q01DX005 (ip), vehicle: Klucel (hydroxypropylcellulose) (HPC)
[23] = dose: 120.0 mg/kg/injection, schedule: Q01DX005 (ip), vehicle: Klucel (hydroxypropylcellulose) (HPC)
[24] = dose: 50.0 mg/kg/injection, schedule: Q01DX009 (ip), vehicle: saline
[25] = dose: 100.0 mg/kg/injection, schedule: Q01DX009 (ip), vehicle: saline

Measured: T/C

COC(=O)c1ccccc1S(=O)(=O)N1CCOCC1
inactive: [1] 99 % of control | [2] 99 % of control | [3] 98 % of control

O=C(O)c1cc(=O)c2cc3c(=O)cc(C(=O)O)[nH]c3c(Cl)c2[nH]1
inactive: [4] 96 % of control | [5] 96 % of control | [6] 100 % of control

Cc1cc2[nH]c3c(C#N)c(O)c(Cc4ccccc4)c(=O)n3c2cc1C
inactive: dose: 60.0 mg/kg/injection, schedule: Q01DX005 (ip), vehicle: saline with Tween-80 91 % of control | dose: 120.0 mg/kg/injection, schedule: Q01DX005 (ip), vehicle: saline with Tween-80 89 % of control | dose: 240.0 mg/kg/injection, schedule: Q01DX005 (ip), vehicle: saline with Tween-80 90 % of control

CN(C)C(=S)SC(=S)Sc1c(Cl)c(Cl)c(Cl)c(Cl)c1Cl
inactive: [5] 99 % of control | [6] 100 % of control | dose: 200.0 mg/kg/injection, schedule: Q01DX009 (ip), vehicle: saline with Tween-80 99 % of control

C(=N/n1nnc(-c2ccccc2)n1)/c1ccccc1
inactive: [7] 101 % of control | [8] 92 % of control

BrC1CC2(OCCO2)C(Br)CC12OCCO2 (centres undefined)
inactive: dose: 25.0 mg/kg/injection, schedule: Q04DX003 (ip), vehicle: saline 99 % of control | dose: 50.0 mg/kg/injection, schedule: Q04DX003 (ip), vehicle: saline 100 % of control | dose: 100.0 mg/kg/injection, schedule: Q04DX003 (ip), vehicle: saline 118 % of control | dose: 200.0 mg/kg/injection, schedule: Q04DX003 (ip), vehicle: saline 103 % of control | dose: 400.0 mg/kg/injection, schedule: Q04DX003 (ip), vehicle: saline 103 % of control

NC(=O)c1[nH]cnc1O
inactive: [9] 114 % of control | [10] 107 % of control | [7] 108 % of control and 123 % of control | [8] 114 % of control and 123 % of control | dose: 100.0 mg/kg/injection, schedule: Q04DX002 (ip), vehicle: saline with Tween-80 100 % of control | dose: 200.0 mg/kg/injection, schedule: Q01DX005 (ip), vehicle: saline with Tween-80 123 % of control | dose: 200.0 mg/kg/injection, schedule: Q04DX002 (ip), vehicle: saline with Tween-80 110 % of control

C=C1C(=O)OC2/C=C(\C)C(O)/C=C\C(C)(O)CC(OC(=O)/C(C)=C/C)C12 (centres undefined)
inactive: dose: 10.0 mg/kg/injection, schedule: Q01DX009 (ip), vehicle: saline 114 % of control | dose: 20.0 mg/kg/injection, schedule: Q01DX009 (ip), vehicle: saline 101 % of control | dose: 40.0 mg/kg/injection, schedule: Q01DX009 (ip), vehicle: saline 108 % of control

Oc1cc(O)c(-c2c(O)cc(O)cc2O)c(O)c1 (tested in a mixture with another compound)
inactive: dose: 1.56 mg/kg/injection, schedule: Q01DX005 (ip), vehicle: saline 97 % of control | dose: 3.12 mg/kg/injection, schedule: Q01DX005 (ip), vehicle: saline 106 % of control | dose: 6.25 mg/kg/injection, schedule: Q01DX005 (ip), vehicle: saline 111 % of control | [11] 101 % of control | [12] 96 % of control | [13] 108 % of control

CN(C)C1(c2ccc3ccccc3c2)CSC1
inactive: [14] 100 % of control | [15] 100 % of control | [16] 96 % of control

OC1(c2ccc(C3(O)C(c4ccccc4)=C(c4ccccc4)C(c4ccccc4)=C3c3ccccc3)cc2)C(c2ccccc2)=C(c2ccccc2)C(c2ccccc2)=C1c1ccccc1
inactive: [17] 105 % of control | [18] 86 % of control | [19] 90 % of control

Cc1ccc(NCCN2CCC(C3CCN(CCNc4ccc(C)c5sc6ccccc6c(=O)c45)CC3)CC2)c2c(=O)c3ccccc3sc12
inactive: [20] 90 % of control | [9] 97 % of control | [10] 95 % of control | [7] 94 % of control

CCN(CC)CCn1c2c(c3ccc(OC)cc31)CCN1CC3CC(OC(=O)c4cc(OC)c(OC)c(OC)c4)C(OC)C(C(=O)OC)C3CC21 (centres undefined)
inactive: [12] 97 % of control | [13] 96 % of control | [21] 101 % of control | dose: 200.0 mg/kg/injection, schedule: Q01DX005 (ip), vehicle: saline 106 % of control

Oc1ccccc1C=Nc1cccnc1
inactive: dose: 12.5 mg/kg/injection, schedule: Q01DX009 (ip), vehicle: saline with Tween-80 96 % of control | [4] 101 % of control | [5] 87 % of control

Nc1nc(N)c(CCCOc2ccc(C(=O)O)cc2)c(N)n1
inactive: [22] 93 % of control | [23] 97 % of control

COC(=O)C(CSC(c1ccccc1)(c1ccccc1)c1ccccc1)NC(=O)C(CSCc1ccccc1)NC(C)=O (centres undefined) (Ac-Cys(Bn)-Cys(Trt)-OMe; configuration not given here)
inactive: dose: 4.0 mg/kg/injection, schedule: Q01DX009 (ip), vehicle: water 96 % of control | dose: 8.0 mg/kg/injection, schedule: Q01DX009 (ip), vehicle: water 104 % of control | dose: 16.0 mg/kg/injection, schedule: Q01DX009 (ip), vehicle: water 101 % of control | dose: 32.0 mg/kg/injection, schedule: Q01DX009 (ip), vehicle: water 95 % of control | dose: 64.0 mg/kg/injection, schedule: Q01DX009 (ip), vehicle: water 95 % of control | dose: 128.0 mg/kg/injection, schedule: Q01DX009 (ip), vehicle: water 90 % of control

O=C1Nc2cnc(Cl)nc2Nc2cc(Cl)ccc21
inactive: [1] 95 % of control | [2] 95 % of control | [3] 92 % of control

O=C(NC(c1ccccc1)c1ccccc1)OCc1c2ccccc2cc2ccccc12
inactive: [17] 88 % of control | [18] 100 % of control | [19] 100 % of control

CN(C(=S=O)c1ccccc1)c1ccccc1
inactive: [24] 109 % of control | [25] 104 % of control | dose: 200.0 mg/kg/injection, schedule: Q01DX009 (ip), vehicle: saline 106 % of control

O=C1c2ccccc2-c2c1c1ccccc1c(=O)n2Cc1ccccc1
inactive: [20] 101 % of control | [9] 101 % of control | [10] 104 % of control

Cc1cc(=O)n(-c2ccc(F)cc2)[nH]1
inactive: [22] 89 % of control | [23] 92 % of control | dose: 240.0 mg/kg/injection, schedule: Q01DX005 (ip), vehicle: Klucel (hydroxypropylcellulose) (HPC) 90 % of control

CC(=O)OC/C(C)=N\NS(=O)(=O)c1cc(Cl)c(Cl)cc1Cl
inactive: [24] 99 % of control | [25] 86 % of control

COC(=O)C1=NC(=O)C(C#N)=C(C(=O)OC)C1(C(=O)c1ccc(OC)cc1)c1ccc(OC)cc1 (centres undefined)
inactive: [22] 95 % of control | [23] 91 % of control

Cc1c(N)nc(C(CC(N)=O)NCC(N)C(N)=O)nc1C(=O)NC(C(=O)NC(C)C(O)C(C)C(=O)NC(C(=O)NCCc1nc(-c2nc(C(=O)NCCCNCCCCN)cs2)cs1)C(C)O)C(OC1OC(CO)C(O)C(O)C1OC1OC(CO)C(O)C(OC(N)=O)C1O)c1cnc[nH]1 (centres undefined)
inactive: [11] 117 % of control | [21] 104 % of control

CC12CCC3(O)C(CCC4C(O)C(=O)CCC43C)C1CCC2=O (centres undefined)
inactive: dose: 11.25 mg/kg/injection, schedule: Q01DX005 (ip), vehicle: Klucel (hydroxypropylcellulose) (HPC) 105 % of control | dose: 22.5 mg/kg/injection, schedule: Q01DX005 (ip), vehicle: Klucel (hydroxypropylcellulose) (HPC) 100 % of control | dose: 45.0 mg/kg/injection, schedule: Q01DX005 (ip), vehicle: Klucel (hydroxypropylcellulose) (HPC) 105 % of control | dose: 90.0 mg/kg/injection, schedule: Q01DX005 (ip), vehicle: Klucel (hydroxypropylcellulose) (HPC) 114 % of control | dose: 180.0 mg/kg/injection, schedule: Q01DX005 (ip), vehicle: Klucel (hydroxypropylcellulose) (HPC) 98 % of control

O=[N+]([O-])c1ccc(N/N=C(\CBr)c2ccccc2)c([N+](=O)[O-])c1
inactive: [14] 91 % of control | [15] 87 % of control | [16] 87 % of control
